Source: PMC10002375, “Synthesis of 3-(2-Alkylthio-4-chloro-5-methylbenzenesulfonyl)-2-(1-phenyl-3-arylprop-2-enylideneamino)guanidine Derivatives with Pro-Apoptotic Activity against Cancer Cells” (International Journal of Molecular Sciences, 2023)

Key:
MCF-7 (breast cancer) = test: MTT cell viability assay, MCF-7; type: cell-based, human; details: for IC50: MTT, 72 h; for Selectivity Index MCF-7/HaCaT: MCF-7 versus HaCaT, from IC50 values
Description: (§1) The cytotoxic activity of the compounds 8–33 has been evaluated in MTT assays against three human cancer cell lines MCF-7 (breast cancer), HeLa (cervical cancer), and HCT-116 (colon cancer) and it was expressed as IC50 values in μM (Table 1).
(§2) All chemicals, if not stated otherwise, were obtained from Sigma-Aldrich (St. Louis, MO, USA). The MCF-7 cell line was purchased from Cell Lines Services (Eppelheim, Germany), the HeLa and HCT-116 cell lines were obtained from the Department of Microbiology, Tumor and Cell Biology, Karolinska Institute (Stockholm, Sweden). Cells were cultured in Dulbecco’s modified Eagle’s medium (DMEM) supplemented with 10% fetal bovine serum, 2 mM glutamine, 100 units/mL penicillin, and 100 μg/mL streptomycin. Cultures were maintained in a humidified atmosphere with 5% CO2 at 37 °C in an incubator (HeraCell, Heraeus, Langenselbold, Germany).
(§3) Cell viability was determined using the MTT (3-(4,5-dimethylthiazol-2-yl)-2,5-diphenyl-tetrazoliumbromide) assay. Stock solutions of the studied compounds were prepared in 100% DMSO. […] Cells were seeded in 96-well plates at a density of 5 × 10^3 cells/well and treated for 72 h with the examined compounds in the concentration range 1–100 μM (1, 10, 25, 50, and 100 μM). Following treatment, MTT (0.5 mg/mL) was added to the medium and cells were further incubated for 2 h at 37 °C. Cells were lysed with DMSO and the absorbance of the formazan solution was measured at 550 nm with a plate reader (1420 multilabel counter, Victor, Jügesheim, Germany). […] The experiment was performed in triplicate. Values are expressed as the mean ± SD of at least three independent experiments.

HaCaT cells = test: MTT assay with non-cancerous HaCaT cell line; type: cell-based; details: 72 h
Method: The important feature of new cytotoxic agents is their selective activity against cancer cells with a weak impact on the physiology of healthy cells. Determination of the selectivity of compounds 14–19 and 24–29 was done by MTT assay with the non-cancerous HaCaT cell line (Table 2). […] A similar effect was observed also for compound 26. […] Due to the excellent selectivity of compound 30 towards HCT-116 cells and at the same time high cytotoxicity towards this cell line (IC50 = 8 μM); derivative 30 may be a good hit compound for the search for chemotherapeutic agents for the treatment of colon cancer.
as §3

HeLa (cervical cancer) = test: MTT cell viability assay, HeLa; type: cell-based, human; details: for IC50: Homo sapiens, HeLa, MTT, 72 h; for Selectivity Index HeLa/HaCaT: HeLa versus HaCaT, from IC50 values
Method: as §2, §3

HCT-116 (colon cancer) = test: MTT cell viability assay, HCT-116; type: cell-based, human; details: for IC50: Homo sapiens, HCT-116, MTT, 72 h; for Selectivity Index HCT-116/HaCaT: HCT-116 versus HaCaT, from IC50 values
Method: as §2, §3

[1] = system: MCF-7, HeLa and HCT-116 cells; test: MTT assay, mean over three tested cancer cell lines; type: cell-based, human
Method: as §1
Although the highest activity of the compounds with hydroxyl groups as the R^2 residue was against colon cancer cells, the inhibition of the growth of breast cancer cells was also remarkable.
as §3

Row | SMILES | IC50 (MCF-7 (breast cancer); Homo sapiens, MCF7) [µM] | IC50 (HeLa (cervical cancer)) [µM] | IC50 (HCT-116 (colon cancer)) [µM] | melting point [°C] | IC50 ([1]; Homo sapiens, mean of MCF-7, HeLa, HCT-116, MTT, 72 h, read-out: mean IC50 against three tested cell lines) [µM] | IC50 (MCF-7 (breast cancer)) [µM] | IC50 (HaCaT cells) [µM] | Selectivity Index MCF-7/HaCaT (MCF-7 (breast cancer)) | Selectivity Index HeLa/HaCaT (HeLa (cervical cancer)) | Selectivity Index HCT-116/HaCaT (HCT-116 (colon cancer)) | IC50 (HaCaT cells; Homo sapiens, HaCaT) [µM] | selectivity ratio, mean IC50 against cancer cells versus IC50 for HaCaT ([1]; HaCaT versus mean of three cancer cell lines)
1 | N.N.[Cl][Pt][Cl] [Cisplatin, reference compound] | – | – | – | – | – | 3 ± 0.1 | 7.7 ± 0.2 | – | – | – | – | –
2 | Cc1cc(S(=O)(=O)NC(N)=NN=C(C=Cc2ccc(O)cc2)c2ccccc2)c(SCc2ccccc2)cc1Cl [Compound 10] | 15 ± 1 | 15 ± 1 | 9 ± 0.1 | – | – | – | – | 2.1 | 2.1 | 3.4 | 31 ± 1 | –
3 | Cc1cc(S(=O)(=O)NC(N)=NN=C(C=Cc2ccc([N+](=O)[O-])cc2)c2ccccc2)c(SCc2ccccc2)cc1Cl [Compound 13] | 370 ± 20 | 340 ± 31 | 320 ± 10 | – | – | – | – | – | – | – | – | –
4 | Cc1cc(S(=O)(=O)NC(N)=NN=C(C=Cc2ccccc2O)c2ccccc2)c(SCc2ccccc2C)cc1Cl [Compound 14] | 13 ± 0.6 | 18 ± 1 | 9 ± 0.1 | – | – | – | – | 2.4 | 1.7 | 3.4 | 31 ± 2 | –
5 | Cc1cc(S(=O)(=O)NC(N)=NN=C(C=Cc2ccc(O)cc2)c2ccccc2)c(SCc2ccccc2C)cc1Cl [Compound 15] | 13 ± 0.4 | 18 ± 0.5 | 10 ± 0.6 | 220 to 225 | – | – | – | 2.5 | 1.8 | 3.3 | 33 ± 2 | –
6 | Cc1cccc(CSc2cc(Cl)c(C)cc2S(=O)(=O)NC(N)=NN=C(C=Cc2ccccc2O)c2ccccc2)c1 [Compound 16] | 20 ± 0.5 | 36 ± 2 | 17 ± 0.1 | – | – | – | – | 2.0 | ns | 2.4 | 41 ± 2 | –
7 | Cc1ccc(CSc2cc(Cl)c(C)cc2S(=O)(=O)NC(=N)N/N=C(/C=C/c2ccccc2)c2ccccc2)cc1 [Compound 18] | 260 ± 15 | 200 ± 10 | 160 ± 5 | – | – | – | – | – | – | – | – | –
8 | Cc1ccc(CSc2cc(Cl)c(C)cc2S(=O)(=O)NC(N)=NN=C(C=Cc2ccccc2O)c2ccccc2)cc1 [Compound 19] | 14 ± 1 | 23 ± 1 | 11 ± 0.2 | 120 to 125 | – | – | – | 1.9 | 1.6 | 3.3 | 36 ± 2 | –
9 | Cc1ccc(CSc2cc(Cl)c(C)cc2S(=O)(=O)NC(N)=NN=C(C=Cc2ccc(O)cc2)c2ccccc2)cc1 [Compound 20, 3-{4-Chloro-2-[(4-methylphenyl)methylthio]-5-methylbenzenesulfonyl}-2-[3-(4-hydroxyphenyl)-1-phenylprop-2-enylideneamino]guanidine] | 15 ± 1 | 15 ± 1 | 8.5 ± 0.2 | – | 12.8 | – | – | 2.1 | 2.1 | 3.6 | 31 ± 1 | 2.42
10 | COc1ccc(C=CC(=NN=C(N)NS(=O)(=O)c2cc(C)c(Cl)cc2SCc2ccc(C)cc2)c2ccccc2)cc1 [Compound 21] | 150 ± 10 | 250 ± 12 | 235 ± 5 | – | – | – | – | – | – | – | – | –
11 | Cc1cc(S(=O)(=O)NC(N)=NN=C(C=Cc2ccc(O)cc2)c2ccccc2)c(SCc2ccccc2Cl)cc1Cl [Compound 25] | 19 ± 1 | 18 ± 0.5 | 15 ± 0.6 | – | – | – | – | 2.2 | 2.3 | 2.7 | 41 ± 2 | –
12 | Cc1cc(S(=O)(=O)NC(N)=NN=C(C=Cc2ccccc2O)c2ccccc2)c(SCc2cccc(Cl)c2)cc1Cl [Compound 26] | 13 ± 0.6 | 19 ± 0.5 | 10 ± 0.4 | – | – | – | – | 2.9 | 2.0 | 3.8 | 38 ± 2 | –
13 | Cc1cc(S(=O)(=O)NC(N)=NN=C(C=Cc2ccccc2O)c2ccccc2)c(SCc2ccc(Cl)cc2)cc1Cl [Compound 29] | 19 ± 1 | 41 ± 2 | 18 ± 0.4 | – | – | – | – | 2.4 | ns | 2.5 | 45 ± 3 | –

The next lines start with results.

Row | IC50 (MCF-7 (breast cancer); Homo sapiens, MCF7) [µM] | IC50 (HeLa (cervical cancer)) [µM] | IC50 (HCT-116 (colon cancer)) [µM] | melting point [°C] | IC50 ([1]; Homo sapiens, mean of MCF-7, HeLa, HCT-116, MTT, 72 h, read-out: mean IC50 against three tested cell lines) [µM] | SMILES | IC50 (MCF-7 (breast cancer)) [µM] | IC50 (HaCaT cells) [µM] | Selectivity Index MCF-7/HaCaT (MCF-7 (breast cancer)) | Selectivity Index HeLa/HaCaT (HeLa (cervical cancer)) | Selectivity Index HCT-116/HaCaT (HCT-116 (colon cancer)) | IC50 (HaCaT cells; Homo sapiens, HaCaT) [µM] | selectivity ratio, mean IC50 against cancer cells versus IC50 for HaCaT ([1]; HaCaT versus mean of three cancer cell lines)
14 | 130 ± 8 | 120 ± 8 | 167 ± 7 | – | – | Cc1cc(S(=O)(=O)NC(N)=NN=C(C=Cc2ccccc2)c2ccccc2)c(SCc2ccccc2)cc1Cl [Compound 8] | – | – | – | – | – | – | –
15 | 18 ± 1 | 17 ± 1 | 11 ± 0.5 | – | – | Cc1cc(S(=O)(=O)NC(N)=NN=C(C=Cc2ccccc2O)c2ccccc2)c(SCc2ccccc2)cc1Cl [Compound 9] | – | – | 1.9 | 2.1 | 3.2 | 35 ± 1 | –
16 | 330 ± 17 | – | 300 ± 21 | – | – | COc1ccc(C=CC(=NN=C(N)NS(=O)(=O)c2cc(C)c(Cl)cc2SCc2ccccc2)c2ccccc2)cc1 [Compound 11] | – | – | – | – | – | – | –
17 | 210 ± 13 | 190 ± 10 | 113 ± 6 | – | – | Cc1cc(S(=O)(=O)NC(N)=NN=C(C=Cc2ccc(Cl)cc2)c2ccccc2)c(SCc2ccccc2)cc1Cl [Compound 12] | – | – | – | – | – | – | –
18 | 17 ± 1 | 21 ± 1 | 12 ± 0.6 | – | – | Cc1cccc(CSc2cc(Cl)c(C)cc2S(=O)(=O)NC(N)=NN=C(C=Cc2ccc(O)cc2)c2ccccc2)c1 [Compound 17] | – | – | 2.1 | 1.7 | 2.9 | 35 ± 2 | –
19 | 193 ± 10 | 705 ± 35 | 183 ± 13 | 172 to 177 | – | Cc1ccc(CSc2cc(Cl)c(C)cc2S(=O)(=O)NC(N)=NN=C(C=Cc2ccc(Cl)cc2)c2ccccc2)cc1 [Compound 22] | – | – | – | – | – | – | –
20 | 280 ± 17 | 170 ± 10 | – | – | – | Cc1ccc(CSc2cc(Cl)c(C)cc2S(=O)(=O)NC(N)=NN=C(C=Cc2ccc([N+](=O)[O-])cc2)c2ccccc2)cc1 [Compound 23] | – | – | – | – | – | – | –
21 | 16 ± 1 | 20 ± 0.5 | 12 ± 0.1 | – | – | Cc1cc(S(=O)(=O)NC(N)=NN=C(C=Cc2ccc(O)cc2)c2ccccc2)c(SCc2cccc(Cl)c2)cc1Cl [Compound 27] | – | – | 2.3 | 1.8 | 3.1 | 37 ± 2 | –
22 | 230 ± 12 | 20 ± 1 | 220 ± 11 | – | – | Cc1cc(S(=O)(=O)NC(N)=NN=C(C=Cc2ccccc2)c2ccccc2)c(SCc2ccc(Cl)cc2)cc1Cl [Compound 28] | – | – | – | – | – | 99 ± 3 | –
23 | 18 ± 1 | 37 ± 1 | 8 ± 0.2 | – | – | Cc1cc(S(=O)(=O)NC(N)=NN=C(C=Cc2ccc(O)cc2)c2ccccc2)c(SCc2ccc(Cl)cc2)cc1Cl [Compound 30, 3-{4-chloro-2-[(4-chlorophenyl)methylthio]-5-methylbenzenesulfonyl}-2-[3-(4-hydroxyphenyl)-1-phenylprop-2-enylideneamino]guanidine] | – | – | 4.7 | 2.3 | 10.6 | 85 ± 2 | –
24 | 220 ± 12 | 110 ± 3 | 450 ± 27 | – | – | Cc1cc(S(=O)(=O)NC(N)=NN=C(C=Cc2ccc([N+](=O)[O-])cc2)c2ccccc2)c(SCc2ccc(Cl)cc2)cc1Cl [Compound 33] | – | – | – | – | – | – | –
